Assay results taken from ChEMBL document CHEMBL1150336, “Synthesis and antibacterial activity of novel pyrido[1,2,3-de][1,4]benzoxazine-6-carboxylic acid derivatives carrying the 3-cyclopropylaminomethyl-4-substituted-1-pyrrolidinyl group as a C-10 substituent” (J Med Chem, 2008).
Values after ≈ are worked out from the molar mass of the structure shown.

How the values were obtained:
Enterococcus faecalis [1] = experiment: Antibacterial activity against vancomycin-resistant Enterococcus faecalis KU1866 after 18 hrs by agar dilution method; type: functional
Haemophilus influenzae = experiment: Antibacterial activity against Haemophilus influenzae IID983 after 18 hrs by agar dilution method; type: functional
Enterococcus faecalis [2] = experiment: Antibacterial activity against Enterococcus faecalis IID682 after 18 hrs by agar dilution method; type: functional
Enterococcus faecalis [3] = experiment: Antibacterial activity against vancomycin-resistant Enterococcus faecalis KU1856 after 18 hrs by agar dilution method; type: functional
Pseudomonas aeruginosa = experiment: Antibacterial activity against Pseudomonas aeruginosa IID1210 after 18 hrs by agar dilution method; type: functional
Streptococcus pneumoniae [4] = experiment: Antibacterial activity against Streptococcus pneumoniae type 3 after 18 hrs by agar dilution method; type: functional
Enterococcus faecalis [5] = experiment: Antibacterial activity against quinoline-resistant Enterococcus faecalis No.15 isolate after 18 hrs by agar dilution method; type: functional
Klebsiella pneumoniae = experiment: Antibacterial activity against Klebsiella pneumoniae IID5209 after 18 hrs by agar dilution method; type: functional
Escherichia coli = experiment: Antibacterial activity against Escherichia coli NIHJ JC2 after 18 hrs by agar dilution method; type: functional; settings: NIHJ JC2, 18 h
Staphylococcus aureus [6] = experiment: Antibacterial activity against Staphylococcus aureus Smith after 18 hrs by agar dilution method; type: functional
Streptococcus pneumoniae [7] = experiment: Antibacterial activity against quinoline-resistant Streptococcus pneumoniae no.55 isolate after 18 hrs by agar dilution method; type: functional
Staphylococcus aureus [8] = experiment: Antibacterial activity against quinoline-resistant Staphylococcus aureus OITI MR1-1002 isolate after 18 hrs by agar dilution method; type: functional
Streptococcus pyogenes = experiment: Antibacterial activity against Streptococcus pyogenes IID692 after 18 hrs by agar dilution method; type: functional
Mus musculus [9] = experiment: Toxicity in ICR mouse assessed as mortality administered as single dose at 200 mg/kg, iv after 7 days; type: organism-based; set-up: dose 200 mg/kg, route intravenous; settings: in vivo, 168 h
Mus musculus [10] = experiment: Toxicity in intracerebroventricularly dosed ICR mouse assessed as induction of convulsion after 2 hrs in absence of fenbufen; type: organism-based; settings: in vivo, icv_or_intrathecal
Mus musculus [11] = experiment: Toxicity in intracerebroventricularly dosed ICR mouse assessed as induction of convulsion after 2 hrs in presence of fenbufen; type: organism-based; settings: in vivo, icv_or_intrathecal
Mus musculus [12] = experiment: Toxicity in ICR mouse assessed as mortality administered as single dose at 100 mg/kg, iv after 7 days; type: organism-based; set-up: dose 100 mg/kg, route intravenous; settings: in vivo, 168 h
Mus musculus [13] = experiment: Phototoxicity in orally dosed ICR mouse assessed as skin erythema after 72 hrs; type: organism-based; settings: in vivo, po
Staphylococcus aureus [14] = experiment: Antibacterial activity against Staphylococcus aureus Smith infected in subcutaneously dosed ICR mouse administered 1 hr after bacterial challenge measured at 7 days post infection; type: functional; settings: sc
Staphylococcus aureus [15] = experiment: Antibacterial activity against quinoline-resistant Staphylococcus aureus MS5935 containing double grlA and double gyrA mutation after 18 hrs by agar dilution method; type: functional
DNA gyrase [16] = target: T1, DNA gyrase (Staphylococcus aureus, UniProt P0A0K8+P20831); experiment: Inhibition of Staphylococcus aureus MS5935 wild type DNA gyrase-mediated supercoiling activity; type: protein-complex assay
T1 sequence (P0A0K8 whole entry): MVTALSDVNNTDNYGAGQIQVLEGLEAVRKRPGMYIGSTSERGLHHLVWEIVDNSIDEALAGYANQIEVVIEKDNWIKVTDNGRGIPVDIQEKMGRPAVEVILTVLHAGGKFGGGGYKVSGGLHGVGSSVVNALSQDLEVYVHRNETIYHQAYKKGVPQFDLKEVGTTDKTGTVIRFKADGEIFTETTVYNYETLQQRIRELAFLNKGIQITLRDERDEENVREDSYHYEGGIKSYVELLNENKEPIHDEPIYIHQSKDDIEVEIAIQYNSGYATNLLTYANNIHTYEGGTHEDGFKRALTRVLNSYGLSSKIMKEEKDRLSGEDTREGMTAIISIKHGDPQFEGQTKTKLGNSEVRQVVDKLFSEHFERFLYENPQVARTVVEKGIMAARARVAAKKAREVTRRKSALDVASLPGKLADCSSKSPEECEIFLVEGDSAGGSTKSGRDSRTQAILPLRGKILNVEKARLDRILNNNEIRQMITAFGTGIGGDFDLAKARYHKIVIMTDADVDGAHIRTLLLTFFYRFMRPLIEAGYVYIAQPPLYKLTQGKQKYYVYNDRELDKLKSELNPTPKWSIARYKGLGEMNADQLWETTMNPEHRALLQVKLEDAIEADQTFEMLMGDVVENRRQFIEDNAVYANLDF
T1 sequence (P20831 whole entry): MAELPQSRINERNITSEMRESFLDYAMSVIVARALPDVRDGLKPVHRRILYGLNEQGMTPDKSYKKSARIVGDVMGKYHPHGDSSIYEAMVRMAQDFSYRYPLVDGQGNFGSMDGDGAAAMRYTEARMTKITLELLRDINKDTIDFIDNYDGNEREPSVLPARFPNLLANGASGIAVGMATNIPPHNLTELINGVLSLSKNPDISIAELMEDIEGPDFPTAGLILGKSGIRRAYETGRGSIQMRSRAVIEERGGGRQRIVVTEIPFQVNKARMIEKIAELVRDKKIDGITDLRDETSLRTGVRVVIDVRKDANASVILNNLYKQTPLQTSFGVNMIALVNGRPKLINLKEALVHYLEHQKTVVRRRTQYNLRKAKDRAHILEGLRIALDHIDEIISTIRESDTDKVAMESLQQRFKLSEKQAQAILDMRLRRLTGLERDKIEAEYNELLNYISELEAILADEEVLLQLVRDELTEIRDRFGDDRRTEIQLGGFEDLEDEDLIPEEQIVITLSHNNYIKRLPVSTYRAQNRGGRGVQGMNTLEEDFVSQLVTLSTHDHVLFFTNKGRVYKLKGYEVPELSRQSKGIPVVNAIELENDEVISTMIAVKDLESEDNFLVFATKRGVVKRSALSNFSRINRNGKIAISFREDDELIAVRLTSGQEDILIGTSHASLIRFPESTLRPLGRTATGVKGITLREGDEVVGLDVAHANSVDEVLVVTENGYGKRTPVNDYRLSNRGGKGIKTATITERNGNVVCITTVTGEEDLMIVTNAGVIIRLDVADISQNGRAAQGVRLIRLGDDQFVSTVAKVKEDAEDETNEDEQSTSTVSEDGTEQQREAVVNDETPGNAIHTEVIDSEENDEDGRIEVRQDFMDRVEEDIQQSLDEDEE

Staphylococcus aureus [17] = experiment: Antibacterial activity against quinoline-resistant Staphylococcus aureus MS5935 containing double grlA and single gyrA mutation after 18 hrs by agar dilution method; type: functional
Staphylococcus aureus [18] = experiment: Antibacterial activity against quinoline-resistant wild type Staphylococcus aureus MS5935 after 18 hrs by agar dilution method; type: functional
Staphylococcus aureus [19] = experiment: Antibacterial activity against quinoline-resistant Staphylococcus aureus MS5935 containing single grlA and single gyrA mutation after 18 hrs by agar dilution method; type: functional
Staphylococcus aureus [20] = experiment: Antibacterial activity against Staphylococcus aureus Smith infected in po dosed ICR mouse administered 1 hr after bacterial challenge measured at 7 days post infection; type: functional
Staphylococcus aureus [21] = experiment: Antibacterial activity against quinoline-resistant Staphylococcus aureus MS5935 containing single grlA mutation after 18 hrs by agar dilution method; type: functional
[22] = Inhibition of Staphylococcus aureus MS5935 wild type topoisomerase 4-mediated decatenation activity
Streptococcus pneumoniae [23] = experiment: Antibacterial activity against Streptococcus pneumoniae type 3 infected in po dosed ICR mouse administered 1 hr after bacterial challenge measured at 7 days post infection; type: functional
DNA gyrase [24] = target: T1, DNA gyrase; experiment: Inhibition of quinoline-resistant Staphylococcus aureus MS5935 DNA gyrase-mediated supercoiling activity; type: protein-complex assay
Streptococcus pneumoniae [25] = experiment: Antibacterial activity against Streptococcus pneumoniae type 3 infected in subcutaneously dosed ICR mouse administered 1 hr after bacterial challenge measured at 7 days post infection; type: functional; settings: sc
[26] = Inhibition of quinoline-resistant Staphylococcus aureus MS5935 topoisomerase 4-mediated decatenation activity

SMILES	MIC (Enterococcus faecalis [1])	MIC (Haemophilus influenzae)	MIC (Enterococcus faecalis [2])	MIC (Enterococcus faecalis [3])	MIC (Pseudomonas aeruginosa)	MIC (Streptococcus pneumoniae [4])	MIC (Enterococcus faecalis [5])	MIC (Klebsiella pneumoniae)	MIC (Escherichia coli)	MIC (Staphylococcus aureus [6])	MIC (Streptococcus pneumoniae [7])	MIC (Staphylococcus aureus [8])	MIC (Streptococcus pyogenes)	Activity (Mus musculus [9])	Activity (Mus musculus [10])	Activity (Mus musculus [11])	further results
C[C@H]1COc2c(N3C[C@H](CNC4CC4)[C@@H](F)C3)c(F)cc3c(=O)c(C(=O)O)cn1c23	4 µg/mL (≈ 9.54 µM)	0.008 µg/mL (≈ 0.0191 µM)	0.125 µg/mL (≈ 0.298 µM)	2 µg/mL (≈ 4.77 µM)	4 µg/mL (≈ 9.54 µM)	0.063 µg/mL (≈ 0.15 µM)	4 µg/mL (≈ 9.54 µM)	0.125 µg/mL (≈ 0.298 µM)	0.016 µg/mL (≈ 0.0381 µM)	0.016 µg/mL (≈ 0.0381 µM)	2 µg/mL (≈ 4.77 µM)	16 µg/mL (≈ 38.1 µM)	0.125 µg/mL (≈ 0.298 µM)				
C[C@H]1CN(c2c(F)cc3c(=O)c(C(=O)O)cn4c3c2OC[C@@H]4C)C[C@@H]1CNC1CC1	1 µg/mL (≈ 2.41 µM)	0.008 µg/mL (≈ 0.0193 µM)	0.031 µg/mL (≈ 0.0746 µM)	1 µg/mL (≈ 2.41 µM)	4 µg/mL (≈ 9.63 µM)	0.016 µg/mL (≈ 0.0385 µM)	1 µg/mL (≈ 2.41 µM)	0.125 µg/mL (≈ 0.301 µM)	0.016 µg/mL (≈ 0.0385 µM)	0.002 µg/mL (≈ 0.00481 µM)	0.5 µg/mL (≈ 1.2 µM)	2 µg/mL (≈ 4.81 µM)	0.016 µg/mL (≈ 0.0385 µM)	Toxic	> 40 µg	> 40 µg	Activity (Mus musculus [12]): Non-toxic
O=C(O)c1cn2c3c(c(N4C[C@H](CNC5CC5)[C@@H](F)C4)c(F)cc3c1=O)OC[C@@H]2CF	4 µg/mL (≈ 9.14 µM)	0.008 µg/mL (≈ 0.0183 µM)	0.125 µg/mL (≈ 0.286 µM)	2 µg/mL (≈ 4.57 µM)	4 µg/mL (≈ 9.14 µM)	0.063 µg/mL (≈ 0.144 µM)	4 µg/mL (≈ 9.14 µM)	0.125 µg/mL (≈ 0.286 µM)	0.031 µg/mL (≈ 0.0709 µM)	0.016 µg/mL (≈ 0.0366 µM)	2 µg/mL (≈ 4.57 µM)	16 µg/mL (≈ 36.6 µM)	0.125 µg/mL (≈ 0.286 µM)				
C[C@@H]1CN(c2c(F)cc3c(=O)c(C(=O)O)cn4c3c2OC[C@@H]4CF)C[C@@H]1CNC1CC1	1 µg/mL (≈ 2.31 µM)	0.004 µg/mL (≈ 0.00923 µM)	0.063 µg/mL (≈ 0.145 µM)	1 µg/mL (≈ 2.31 µM)	2 µg/mL (≈ 4.61 µM)	0.016 µg/mL (≈ 0.0369 µM)	1 µg/mL (≈ 2.31 µM)	0.063 µg/mL (≈ 0.145 µM)	0.016 µg/mL (≈ 0.0369 µM)	0.008 µg/mL (≈ 0.0185 µM)	0.125 µg/mL (≈ 0.288 µM)	0.5 µg/mL (≈ 1.15 µM)	0.031 µg/mL (≈ 0.0715 µM)	Toxic	20 µg	10 µg	Activity (Mus musculus [13]): Non-toxic
O=C(O)c1cn(C2CC2)c2cc(N3CCNCC3)c(F)cc2c1=O [CIPROFLOXACIN]	64 µg/mL (≈ 193 µM)	0.008 µg/mL (≈ 0.0241 µM)	0.5 µg/mL (≈ 1.51 µM)	64 µg/mL (≈ 193 µM)			64 µg/mL (≈ 193 µM)	0.004 µg/mL (≈ 0.0121 µM)	≤ 0.001 µg/mL	0.25 µg/mL (≈ 0.754 µM)	64 µg/mL (≈ 193 µM)	64 µg/mL (≈ 193 µM)	0.5 µg/mL (≈ 1.51 µM)				
NC1CCN(c2c(F)cc3c(=O)c(C(=O)O)cn(C4CC4)c3c2Cl)C1 (stereo not given) [CLINAFLOXACIN]	4 µg/mL (≈ 10.9 µM)	≤ 0.001 µg/mL	0.063 µg/mL (≈ 0.172 µM)	2 µg/mL (≈ 5.47 µM)	0.125 µg/mL (≈ 0.342 µM)	0.031 µg/mL (≈ 0.0847 µM)	8 µg/mL (≈ 21.9 µM)	0.004 µg/mL (≈ 0.0109 µM)	0.002 µg/mL (≈ 0.00547 µM)	0.016 µg/mL (≈ 0.0437 µM)	0.5 µg/mL (≈ 1.37 µM)	8 µg/mL (≈ 21.9 µM)	0.063 µg/mL (≈ 0.172 µM)	Non-toxic	10 µg	5 µg	ED50 (Staphylococcus aureus [14]): 0.35 mg/kg; MIC (Staphylococcus aureus [15]): 8 µg/mL (≈ 21.9 µM); IC50 (DNA gyrase [16]): 3.14 µM; MIC (Staphylococcus aureus [17]): 2 µg/mL (≈ 5.47 µM); MIC (Staphylococcus aureus [18]): 0.016 µg/mL (≈ 0.0437 µM); MIC (Staphylococcus aureus [19]): 0.5 µg/mL (≈ 1.37 µM); ED50 (Staphylococcus aureus [20]): 2.1 mg/kg; MIC (Staphylococcus aureus [21]): 0.063 µg/mL (≈ 0.172 µM); IC50 [22]: 1.89 µg/mL (≈ 5.17 µM); ED50 (Streptococcus pneumoniae [23]): 15 mg/kg; Activity (Mus musculus [12]): Non-toxic; Activity (Mus musculus [13]): Toxic; IC50 (DNA gyrase [24]): 44.3 µM; ED50 (Streptococcus pneumoniae [25]): 45 mg/kg; IC50 [26]: 13.9 µg/mL (≈ 38 µM)
C[C@H]1COc2c(N3CCN(C)CC3)c(F)cc3c(=O)c(C(=O)O)cn1c23.C[C@H]1COc2c(N3CCN(C)CC3)c(F)cc3c(=O)c(C(=O)O)cn1c23.O [LEVOFLOXACIN]	32 µg/mL	0.008 µg/mL	1 µg/mL	32 µg/mL	0.5 µg/mL		64 µg/mL	0.016 µg/mL	≤ 0.001 µg/mL	0.125 µg/mL		> 128 µg/mL	0.5 µg/mL				MIC (Staphylococcus aureus [15]): > 128 µg/mL; MIC (Staphylococcus aureus [17]): 32 µg/mL; MIC (Staphylococcus aureus [18]): 0.125 µg/mL; MIC (Staphylococcus aureus [19]): 8 µg/mL; MIC (Staphylococcus aureus [21]): 0.5 µg/mL; IC50 [22]: 5.44 µg/mL; IC50 [26]: 319 µg/mL
